Experimental findings from patent US7279494B2, “Antimicrobial [3.1.0] bicyclohexylphenyl-oxazolidinone derivatives and analogues” (Pfizer Inc., priority 2003, dated 2007) are described below.

As a reminder, the melting point is the temperature, or range, at which the solid turns liquid.

Converted amounts (≈) assume the structure as drawn. Some results are limits rather than exact numbers.

For one data set, the system named is H. influenzae 30063. As to the kind of experiment: MIC by standard agar dilution, H. influenzae 30063. To be noted: Mueller Hinton agar, incubated overnight at 35° C.; for MIC: Haemophilus influenzae, 30063, agar dilution, read-out: H. influenzae 30063 MIC. The data set is classed as cell-based. In outline:
(§1)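 Agar dilution MIC: 2-fold serial compound dilutions in Mueller Hinton agar, spot-inoculated with ~10^4–10^5 cells from 0.5 McFarland suspensions diluted 1:20 in TSB. Incubated overnight at 35 °C; MIC (μg/mL) taken as lowest concentration preventing visible growth.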
In general terms: In agar dilution, organisms are placed on agar that contains the substance at set levels.

Another data set deals with S. aureus UC9213. Briefly: MIC by standard agar dilution, S. aureus UC9213. The following applies: incubated overnight at 35° C.; for MIC: Staphylococcus aureus, UC9213, Mueller Hinton agar. The data set is classed as cell-based. An outline of the steps:
as §1

A further data set deals with S. pneumoniae UC9912. Briefly: MIC by standard agar dilution, S. pneumoniae UC9912. In kind it is cell-based. The following applies: incubated overnight at 35° C.; for MIC: Streptococcus pneumoniae, UC9912, Mueller Hinton agar. In outline:
as §1

The molecule `CC(=O)NC[C@H]1CN(c2ccc([C@H]3[C@@H]4CSC[C@@H]43)c(F)c2)C(=O)O1` [Example 1, N-[((5S)-3-{3-fluoro-4-[exo-(1R,5S)-3-thiabicyclo[3.1.0]hex-6-yl]phenyl}-2-oxo-1,3-oxazolidin-5-yl)methyl]acetamide] showed a melting point of 177 to 178 °C. Further, the MIC in the data set on H. influenzae 30063 is at most 32 µg/mL. Further, in the data set with S. aureus UC9213, the MIC worked out at 4 µg/mL (≈ 11.4 µM). In the data set on S. pneumoniae UC9912, this molecule returned an MIC of 1 µg/mL (≈ 2.85 µM).

`CCC(=O)NC[C@H]1CN(c2cc(F)c([C@H]3[C@@H]4C[S+]([O-])C[C@@H]43)c(F)c2)C(=O)O1` (stereo partly drawn) [Example 58, N-[((5S)-3-{3,5-difluoro-4-[exo-(1R,5S)-3-oxido-3-thiabicyclo[3.1.0]hex-6-yl]phenyl}-2-oxo-1,3-oxazolidin-5-yl)methyl]propanamide]: the MIC is 2 µg/mL (≈ 5.02 µM) in the data set with H. influenzae 30063, 1 µg/mL (≈ 2.51 µM) with S. aureus UC9213 and 1 µg/mL (≈ 2.51 µM) against S. pneumoniae UC9912.

For `CCC(=O)NC[C@H]1CN(c2cc(F)c([C@H]3[C@@H]4CS(=O)(=O)C[C@@H]43)c(F)c2)C(=O)O1` [Example 59, N-[((5S)-3-{3,5-difluoro-4-[exo-(1R,5S)-3,3-dioxido-3-thiabicyclo[3.1.0]hex-6-yl]phenyl}-2-oxo-1,3-oxazolidin-5-yl)methyl]propanamide], the MIC in the data set with H. influenzae 30063 is 4 µg/mL (≈ 9.65 µM); against S. aureus UC9213, 1 µg/mL (≈ 2.41 µM); in the data set on S. pneumoniae UC9912, 1 µg/mL (≈ 2.41 µM).

As to `CC(F)(F)C(=O)NC[C@H]1CN(c2cc(F)c([C@H]3[C@@H]4CS(=O)(=O)C[C@@H]43)c(F)c2)C(=O)O1` [Example 60, 2,2-difluoro-N-[((5S)-3-{3,5-difluoro-4-[exo-(1R,5S)-3,3-dioxido-3-thiabicyclo[3.1.0]hex-6-yl]phenyl}-2-oxo-1,3-oxazolidin-5-yl)methyl]propanamide], the MIC stood at 16 µg/mL (≈ 35.5 µM) in the data set with H. influenzae 30063, 8 µg/mL (≈ 17.8 µM) with S. aureus UC9213 and 2 µg/mL (≈ 4.44 µM) against S. pneumoniae UC9912.

In the case of `O=C(NC[C@H]1CN(c2cc(F)c([C@H]3[C@@H]4C[S+]([O-])C[C@@H]43)c(F)c2)C(=O)O1)C1CC1` (stereo partly drawn) [Example 61, N-[((5S)-3-{3,5-difluoro-4-[exo-(1R,5S)-3-oxido-3-thiabicyclo[3.1.0]hex-6-yl]phenyl}-2-oxo-1,3-oxazolidin-5-yl)methyl]cyclopropanecarboxamide], the MIC in the data set with H. influenzae 30063 is 8 µg/mL (≈ 19.5 µM); in the data set with S. aureus UC9213 it was 2 µg/mL (≈ 4.87 µM); against S. pneumoniae UC9912, 1 µg/mL (≈ 2.44 µM).

For the molecule `O=C(NC[C@H]1CN(c2cc(F)c([C@H]3[C@@H]4CS(=O)(=O)C[C@@H]43)c(F)c2)C(=O)O1)C1CC1` [Example 62], the figures for the MIC with H. influenzae 30063, with S. aureus UC9213 and in the data set on S. pneumoniae UC9912 were 8 µg/mL (≈ 18.8 µM), 4 µg/mL (≈ 9.38 µM) and 1 µg/mL (≈ 2.34 µM), respectively.

As for `CCC(=O)NC[C@H]1CN(c2cc(F)c([C@H]3[C@@H]4CN(C(N)=O)C[C@@H]43)c(F)c2)C(=O)O1` [Example 63, exo-(1R,5S)-6-(4-{(5S)-5-[(propanoylamino)methyl]-2-oxo-1,3-oxazolidin-3-yl}-2,6-difluorophenyl)-3-azabicyclo[3.1.0]hexane-3-carboxamide], the MIC in the data set on H. influenzae 30063 came out at 8 µg/mL (≈ 19.6 µM); in the data set on S. aureus UC9213, 2 µg/mL (≈ 4.9 µM); against S. pneumoniae UC9912, 1 µg/mL (≈ 2.45 µM).

Take `CCC(=O)NC[C@H]1CN(c2cc(F)c([C@H]3[C@@H]4CN(C(=O)CO)C[C@@H]43)c(F)c2)C(=O)O1` [Example 64, N-[((5S)-3-{3,5-difluoro-4-[exo-(1R,5S)-3-glycoloyl-3-azabicyclo[3.1.0]hex-6-yl]phenyl]-2-oxo-1,3-oxazolidin-5-yl)methyl]propanamide]: the MIC in the data set on H. influenzae 30063 was found to be 8 µg/mL (≈ 18.9 µM); in the data set with S. aureus UC9213, 4 µg/mL (≈ 9.45 µM); against S. pneumoniae UC9912, 2 µg/mL (≈ 4.72 µM).

Regarding `NC(=O)N1C[C@@H]2[C@H](C1)[C@H]2c1c(F)cc(N2C[C@H](Cn3ccnn3)OC2=O)cc1F` [Example 65, exo-(1R,5S)-6-{2,6-difluoro-4-[(5R)-2-oxo-5-(1H-1,2,3-triazol-1-ylmethyl)-1,3-oxazolidin-3-yl]phenyl}-3-azabicyclo[3.1.0]hexane-3-carboxamide], the MIC with H. influenzae 30063 was 16 µg/mL (≈ 39.6 µM); in the data set with S. aureus UC9213, 2 µg/mL (≈ 4.95 µM); in the data set on S. pneumoniae UC9912 it was 2 µg/mL (≈ 4.95 µM).

Regarding `O=C(CO)NC[C@H]1CN(c2ccc([C@H]3[C@@H]4C[S+]([O-])C[C@@H]43)c(F)c2)C(=O)O1` (stereo partly drawn) [Example 66, N-[((5S)-3-{3-fluoro-4-[exo-(1R,5S)-3-oxido-3-thiabicyclo[3.1.0]hex-6-yl]phenyl}-2-oxo-1,3-oxazolidin-5-yl)methyl]-2-hydroxyacetamide], the MIC in the data set on H. influenzae 30063 was determined as 8 µg/mL (≈ 20.9 µM); in the data set with S. aureus UC9213, 4 µg/mL (≈ 10.5 µM); with S. pneumoniae UC9912, 2 µg/mL (≈ 5.23 µM).

As for `O=C(CO)NC[C@H]1CN(c2ccc([C@H]3[C@@H]4CS(=O)(=O)C[C@@H]43)c(F)c2)C(=O)O1` [Example 67, N-[((5S)-3-{3-fluoro-4-{exo-(1R,5 S)-3,3-dioxido-3-thiabicyclo[3.1.0]hex-6-yl]phenyl}-2-oxo-1,3-oxazolidin-5-yl)methyl]-2-hydroxyacetamide], the MIC with H. influenzae 30063, against S. aureus UC9213 and against S. pneumoniae UC9912 was 4 µg/mL (≈ 10 µM) in each case.

As for `N#CCC(=O)NC[C@H]1CN(c2ccc([C@H]3[C@@H]4C[S+]([O-])C[C@@H]43)c(F)c2)C(=O)O1` (stereo partly drawn) [Example 68, 2-cyano-N-[((5S)-3-{3-fluoro-4-[exo-(1R,5S)-3-oxido-3-thiabicyclo[3.1.0]hex-6-yl]phenyl}-2-oxo-1,3-oxazolidin-5-yl)methyl]acetamide], the MIC is 8 µg/mL (≈ 20.4 µM) in the data set with H. influenzae 30063, 4 µg/mL (≈ 10.2 µM) against S. aureus UC9213 and 1 µg/mL (≈ 2.55 µM) in the data set with S. pneumoniae UC9912.

As to `N#CCC(=O)NC[C@H]1CN(c2ccc([C@H]3[C@@H]4CS(=O)(=O)C[C@@H]43)c(F)c2)C(=O)O1` [Example 69, 2-cyano-N-[((5S)-3-{3-fluoro-4-[exo-(1R,5S)-3,3-dioxido-3-thiabicyclo[3.1.0]hex-6-yl]phenyl}-2-oxo-1,3-oxazolidin-5-yl)methyl]acetamide], the MIC was found to be 8 µg/mL (≈ 19.6 µM) with H. influenzae 30063, 4 µg/mL (≈ 9.82 µM) in the data set with S. aureus UC9213 and 4 µg/mL (≈ 9.82 µM) against S. pneumoniae UC9912.

On to `N#CCC(=O)NC[C@H]1CN(c2cc(F)c([C@H]3[C@@H]4C[S+]([O-])C[C@@H]43)c(F)c2)C(=O)O1` (stereo partly drawn) [Example 70, 2-cyano-N-[((5S)-3-{3,5-difluoro-4-[exo-(1R,5S)-3-oxido-3-thiabicyclo[3.1.0]hex-6-yl]phenyl}-2-oxo-1,3-oxazolidin-5-yl)methyl]acetamide], for which the MIC with H. influenzae 30063 was 4 µg/mL (≈ 9.77 µM); against S. aureus UC9213 it was 2 µg/mL (≈ 4.89 µM); with S. pneumoniae UC9912 it was 1 µg/mL (≈ 2.44 µM).

For `N#CCC(=O)NC[C@H]1CN(c2cc(F)c([C@H]3[C@@H]4CS(=O)(=O)C[C@@H]43)c(F)c2)C(=O)O1` [Example 71, 2-cyano-N-[((5S)-3-{3,5-difluoro-4-[exo-(1R,5S)-3,3-dioxide-3-thiabicyclo[3.1.0]hex-6-yl]phenyl}-2-oxo-1,3-oxazolidin-5-yl)methyl]acetamide], the MIC is 4 µg/mL (≈ 9.4 µM) in the data set on H. influenzae 30063, 4 µg/mL (≈ 9.4 µM) against S. aureus UC9213 and 2 µg/mL (≈ 4.7 µM) in the data set on S. pneumoniae UC9912.

Consider `CC(=O)NC[C@H]1CN(c2ccc([C@H]3[C@@H]4CN(C(=N)N)C[C@@H]43)c(F)c2)C(=O)O1` [Example 72, N-{[(5S)-3-(4-{exo-(1R,5S)-3-[amino(imino)methyl]-3-azabicyclo[3.1.0]hex-6-yl}-3-fluorophenyl)-2-oxo-1,3-oxazolidin-5-yl]methyl}acetamide], for which the MIC came to 64 µg/mL (≈ 170 µM) in the data set on H. influenzae 30063, 32 µg/mL (≈ 85.2 µM) with S. aureus UC9213 and 8 µg/mL (≈ 21.3 µM) with S. pneumoniae UC9912.

Regarding `CN/C(=N\C#N)N1C[C@@H]2[C@H](C1)[C@H]2c1ccc(N2C[C@H](CNC(C)=O)OC2=O)cc1F` [Example 73, exo-(1R,5S)-N′-cyano-6-(4-{(5S)-5-[(acetylamino)methyl]-2-oxo-1,3-oxazolidin-3-yl}-2-fluorophenyl)-N-methyl-3-azabicyclo[3.1.0]hexane-3-carboximidamide], the MIC in the data set with H. influenzae 30063 amounted to 4 µg/mL (≈ 9.65 µM); against S. aureus UC9213, 2 µg/mL (≈ 4.83 µM); against S. pneumoniae UC9912 it was 1 µg/mL (≈ 2.41 µM).

As to `CC(=O)NC[C@H]1CN(c2ccc([C@H]3[C@@H]4CN(/C(N)=N/C#N)C[C@@H]43)c(F)c2)C(=O)O1` [Example 74, exo-(1R,5S)-N′-cyano-6-(4-{(5S)-5-[(acetylamino)methyl]-2-oxo-1,3-oxazolidin-3-yl}-2-fluorophenyl)-3-azabicyclo[3.1.0]hexane-3-carboximidamide], the values for the MIC in the data set on H. influenzae 30063, with S. aureus UC9213 and against S. pneumoniae UC9912 were 4 µg/mL (≈ 9.99 µM), 1 µg/mL (≈ 2.5 µM) and 1 µg/mL (≈ 2.5 µM), respectively.

For the molecule `CN/C(=C\[N+](=O)[O-])N1C[C@@H]2[C@H](C1)[C@H]2c1ccc(N2C[C@H](CNC(C)=O)OC2=O)cc1F` [Example 75, N-[((5S)-3-{3-fluoro-4-[exo-(1R,5S)-3-((E)-1-{methylamino}-2-nitrovinyl)-3-azabicyclo[3.1.0]hex-6-yl]phenyl}-2-oxo-1,3-oxazolidin-5-yl)methyl]acetamide], the MIC was 4 µg/mL (≈ 9.23 µM) with H. influenzae 30063, 2 µg/mL (≈ 4.61 µM) against S. aureus UC9213 and 2 µg/mL (≈ 4.61 µM) in the data set with S. pneumoniae UC9912.

Consider `CC(=O)NC[C@H]1CN(c2ccc(N3CCOCC3)c(F)c2)C(=O)O1` [linezolid, reference compound], for which the MIC in the data set with H. influenzae 30063 is 16 µg/mL (≈ 47.4 µM); against S. aureus UC9213 it was 4 µg/mL (≈ 11.9 µM); in the data set on S. pneumoniae UC9912 it was 1 µg/mL (≈ 2.96 µM).

Regarding “N-[((5S)-3-{3-fluoro-4-[exo-(1R,5S)-3-(1-methyl-1H-tetrazol-5-yl)-3-azabicyclo[3.1.0]hex-6-yl]phenyl}-2-oxo-1,3-oxazolidin-5-yl)methyl]acetamide [Example 45]”, the “H. influenzae 30063 MIC” value in the data set on H. influenzae 30063 (agar dilution) turned out to be 16 µg/mL. Further, the “S. aureus UC9213 MIC” value in the data set with S. aureus UC9213 (Mueller Hinton agar) came to 4 µg/mL. Besides, the “S. pneumoniae UC9912 MIC” value with S. pneumoniae UC9912 (Mueller Hinton agar) was found to be 4 µg/mL.
